Legend:
bone marrow cells = experiment: Bone marrow cell growth stimulation, 4 day culture without added cytokines, cell count; format: cell-based; settings: 10,000 bone marrow cells per well at start, IMDM, no growth factors, control 10,000 cells
Description: Freshly isolated bone marrow cells were isolated and 10,000 cells per well were incubated in 96 microtiter plates in CellGro Iscove's Modified Dulbecco's Medium (IMDM) and with or without (control) the indicated concentrations of Pro-boroPro for 4 days. At the end of this incubation period, the cells were counted under the microscope. The cultures without Pro-boroPro contained 10,000 cells at the end of 4 days. The cultures containing Pro-boroPro had 53,000 cells at 10^−6M, 38,000 cells at 10^−8M and 42,000 cells at 10^−10 M. The cultures containing a growth factor mix (GF) contained 82,000 cells. Growth factors were supplied in OPITEN® Giant Cell Tumor-conditioned medium (IGEN)
Cultures were set up as described in the legend to FIG. 1 except that Lys-boroPro and the homoconjugate were used, and incubated for 4 days.
• 1. Obtain bone marrow or umbilical cord blood in heparinized (green top) tube. Can be stored at room temperature until use within 48 hours. • 2. Mix marrow/blood 1:1 with phosphate-buffered saline, pH 7.4(PBS) that has been stored at 4° C. • 3. Carefully layer blood-PBS mixture on a 2× volume quantity of Histopaque (Sigma) that has been stored at 4° C. • 4. Centrifuge at 400 g×20 minutes at 37° C. • 5. Carefully collect cells at interface and wash ×2 in cold PBS. • 6. Count viable cells using trypan blue. • 7. Set up cells as 1 ml cultures in plastic culture tubes (or 96 well or 24 well microtiter plates) at 10^4 cells/ml in CellGro Iscove's Modified Dulbecco's medium (Meditech) containing kanamycin (5 ug/ml), desired concentration of Xaa-boroPro or other compound of the invention, and the absence or presence of Giant Cell Tumor-Conditioned Medium (GCT-CM, Origen) as source of growth factors. Xaa-boroPro or other compounds of the invention should be diluted to medium and added to culture only after cells are in culture tube. • 8. Cells are cultured at 37° C. in a moist air incubator containing 5% CO2. • 9. At desired time, an aliquot of cells are removed and counted. • 10. […]

Isolated CD34+ cells = Isolated CD34+ cells (98% purity) of bone marrow, 4 day culture: growth stimulation and percent CD34+ remaining; format: cell-based, human
Description: (§1) • 1. Obtain bone marrow or umbilical cord blood in heparinized (green top) tube. Can be stored at room temperature until use within 48 hours. • 2. Mix marrow/blood 1:1 with phosphate-buffered saline, pH 7.4(PBS) that has been stored at 4° C. • 3. Carefully layer blood-PBS mixture on a 2× volume quantity of Histopaque (Sigma) that has been stored at 4° C. • 4. Centrifuge at 400 g×20 minutes at 37° C. • 5. Carefully collect cells at interface and wash ×2 in cold PBS. • 6. Count viable cells using trypan blue. • 7. Set up cells as 1 ml cultures in plastic culture tubes (or 96 well or 24 well microtiter plates) at 10^4 cells/ml in CellGro Iscove's Modified Dulbecco's medium (Meditech) containing kanamycin (5 ug/ml), desired concentration of Xaa-boroPro or other compound of the invention, and the absence or presence of Giant Cell Tumor-Conditioned Medium (GCT-CM, Origen) as source of growth factors. Xaa-boroPro or other compounds of the invention should be diluted to medium and added to culture only after cells are in culture tube. • 8. Cells are cultured at 37° C. in a moist air incubator containing 5% CO2. • 9. At desired time, an aliquot of cells are removed and counted. • 10. Counting can be performed under the microscope (direct) or by using the MTT assay (colorimetric assay).

[1] = system: Umbilical cord blood cells; experiment: Bulk umbilical cord blood, total cell counts after 4 day incubation; format: cell-based; settings: control culture 0.2×10^6 cells
Description: (§2) Umbilical cord blood cells were incubated under essentially the same conditions as described in the legend to FIG. 1, except that Val-boroPro was used as stimulant at the indicated concentrations. After 4 day incubation: • A: Bulk Umbilical Cord Blood; Total Cell Counts. Control culture: 0.2×10^6 cells; Growth factors 5×10^6 cells; Val-boroPro: 3×10^6 (10^−6M); 3×10^6 (10^−8M); 4×10^6 ([…]). • B: CD34+ isolated cells: CD34+ cells were isolated using CD34 mAb coupled beads for positive selection. Cell preparation contained 98% CD34+ cells. After 4 days of incubation the culture containing 10^−10M Val-boroPro contained 8.5×10^6 cells, compared to 0.6×10^6 cells in the control and 4×10^6 cells in the incubation with growth factors.
as §1

CD34+ isolated cells = experiment: CD34+ cells isolated from umbilical cord blood, 4 day culture: cell number and percent CD34+ remaining; format: cell-based, human; settings: 10^−10M; isolated CD34+ cells (98% CD34+); control 0.6×10^6 cells
Description: as §2
C: Percent of CD34+ cells remaining after 4 day culture: Cultures incubated with Val-boroPro contained between 10 and 15% of CD34+ cells after 4 day culture. Cultures incubated with Growth Factors had only 4% of CD34+ cells remaining (panel b).
• 1. Obtain bone marrow or umbilical cord blood in heparinized (green top) tube. Can be stored at room temperature until use within 48 hours. • 2. […] Carefully layer blood-PBS mixture on a 2× volume quantity of Histopaque (Sigma) that has been stored at 4° C. • 4. […] At desired time, an aliquot of cells are removed and counted. • 10. […]

Row | Structure (SMILES) | number of cells at the end of 4 days (bone marrow cells; 10^−6M) | number of cells at the end of 4 days (bone marrow cells; 10^−8M) | number of cells at the end of 4 days (bone marrow cells; 10^−10 M) | increase in stimulation of cellular growth over that in control cultures (Isolated CD34+ cells; 4 day culture, concentration not given) | Percent of CD34+ cells remaining in culture after a 4 day incubation period (Isolated CD34+ cells; isolated bone marrow CD34+ cells, control 63%) | Total Cell Counts after 4 day incubation ([1]; 10^−6M) | Total Cell Counts after 4 day incubation ([1]; 10^−8M) | Total Cell Counts after 4 day incubation ([1]; 10^−M (so in the source)) | number of cells after 4 days of incubation (CD34+ isolated cells)
1 | O=C(C1CCCN1)N1CCCC1B(O)O (stereo not drawn) [Pro-boroPro] | 53,000 cells | 38,000 cells | 42,000 cells | – | – | – | – | – | –
2 | CC(C)[C@H](N)C(=O)N1CCC[C@H]1B(O)O [Val-boroPro] | – | – | – | up to 20 fold | 43% | 3×10^6 | 3×10^6 | 4×10^6 | 8.5×10^6 cells

— patent publication US7276371B2, “Stimulation of hematopoietic cells in vitro” (Point Therapeutics, Inc., priority 1997, dated 2007)
